Laboratory results: US20240158446A1, “CYCLIC COMPOUND HAVING SELECTIVE INHIBITORY ACTION ON KRAS OVER HRAS AND NRAS” (CHUGAI SEIYAKU KABUSHIKI KAISHA, priority 2021, published 2024)
*1 amine or outer side, *2 acyl side, *3 side chain or, on linkers, in order; H or OH if unused. Where a SMILES comes first, the peptide text is derived from it. Bridges are numbered along the chain shown (N, C = ends). [ ]: non-standard residue; d: D form. The star is where a group is joined. hPhe(3-Cl-4-CF3) = N[C@@H](CCc1ccc(C(F)(F)F)c(Cl)c1)C(=O)O; X52 = CCCN([C@@H](Cc1ccc(OC(F)(F)F)cc1)C(=O)[*:2])[*:1]; NPrPhe(4-CF3) = CCCN[C@@H](Cc1ccc(C(F)(F)F)cc1)C(=O)O; X15 = Cc1ccc(C[C@@H](C(=O)[*:2])N(CCC(C)C)[*:1])cc1; X10 = C=CCN([C@@H](Cc1ccc(C)cc1)C(=O)[*:2])[*:1]; X53 = C#CCN([C@@H](Cc1ccc(C)cc1)C(=O)[*:2])[*:1]; NMeGly(cPent) = CN[C@H](C(=O)O)C1CCCC1; Pro(4S-Me) = C[C@@H]1CN[C@H](C(=O)O)C1; Hyp = O=C(O)[C@@H]1C[C@@H](O)CN1; NMeD = CN[C@@H](CC(=O)O)C(=O)O; NMeL = CN[C@@H](CC(C)C)C(=O)O; Morpholide = C1CN(*)CCO1; NMeA = CN[C@@H](C)C(=O)O; Ac5c = NC1(C(=O)O)CCCC1; Aze = O=C(O)[C@@H]1CCN1; Ac4c = NC1(C(=O)O)CCC1; NEtG = CCNCC(=O)O; Sar = CNCC(=O)O

Each compound was assayed against GDP-bound KRAS wild-type protein (Homo sapiens, UniProt P01116) (assay: Binding to KRAS by surface plasmon resonance (SPR), Single Cycle Kinetics). Conditions: SPR Single Cycle Kinetics, GDP-bound KRAS wild-type protein, 1:1 binding model; read-out: KRAS KD.
GDP-bound KRAS wild-type protein, sequence (P01116 whole entry): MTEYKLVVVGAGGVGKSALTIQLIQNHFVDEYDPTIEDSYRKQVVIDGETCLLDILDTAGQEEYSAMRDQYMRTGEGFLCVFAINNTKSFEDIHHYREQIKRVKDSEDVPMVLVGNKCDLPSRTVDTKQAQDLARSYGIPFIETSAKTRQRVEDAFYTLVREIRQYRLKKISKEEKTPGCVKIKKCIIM
Work on `CC[C@H](C)[C@@H]1NC(=O)[C@H](CC(C)C)N(C)C(=O)C[C@@H](C(=O)N2CCOCC2)N(C)C(=O)[C@H](C2CCCC2)N(C)C(=O)C2(CCCC2)NC(=O)[C@@H]2CCCN2C(=O)[C@H](CCc2ccc(C(F)(F)F)c(Cl)c2)NC(=O)CN(C)C(=O)[C@H](Cc2ccc(C)cc2)N(CCC(C)C)C(=O)CN(C)C(=O)CN(C)C1=O` [PP0098] ([NMeL]I[Sar][Sar][X15][Sar][hPhe(3-Cl-4-CF3)]P[Ac5c][NMeGly(cPent)][NMeD]-Morpholide; lactam N-11) yielded a Kd of 0.23 nM. With `CCCN1C(=O)[C@@H]2CCN2C(=O)[C@H](C)N(C)C(=O)[C@H]([C@@H](C)CC)NC(=O)[C@H](CC(C)C)N(C)C(=O)C[C@@H](C(=O)N2CCOCC2)N(C)C(=O)[C@H](C2CCCC2)N(C)C(=O)C2(CCCC2)NC(=O)[C@@H]2C[C@H](C)CN2C(=O)[C@H](CCc2ccc(C(F)(F)F)c(Cl)c2)NC(=O)CN(C)C(=O)[C@@H]1Cc1ccc(C(F)(F)F)cc1` [PP0455] ([NMeL]I[NMeA][Aze][NPrPhe(4-CF3)][Sar][hPhe(3-Cl-4-CF3)][Pro(4S-Me)][Ac5c][NMeGly(cPent)][NMeD]-Morpholide; lactam N-11) the Kd was 0.18 nM. `CCCN1C(=O)CN(C)C(=O)CN(CC)C(=O)[C@H]([C@@H](C)CC)NC(=O)[C@H](CC(C)C)N(C)C(=O)C[C@@H](C(=O)N2CCOCC2)N(C)C(=O)[C@H](C2CCCC2)N(C)C(=O)C2(CCCC2)NC(=O)[C@@H]2C[C@H](C)CN2C(=O)[C@H](CCc2ccc(C(F)(F)F)c(Cl)c2)NC(=O)CN(C)C(=O)[C@@H]1Cc1ccc(C(F)(F)F)cc1` [PP0451] ([NMeL]I[NEtG][Sar][NPrPhe(4-CF3)][Sar][hPhe(3-Cl-4-CF3)][Pro(4S-Me)][Ac5c][NMeGly(cPent)][NMeD]-Morpholide; lactam N-11) showed a Kd of 0.75 nM. Work on `C=CCN1C(=O)[C@@H]2CCN2C(=O)[C@H](C)N(C)C(=O)[C@H]([C@@H](C)CC)NC(=O)[C@H](CC(C)C)N(C)C(=O)C[C@@H](C(=O)N2CCOCC2)N(C)C(=O)[C@H](C2CCCC2)N(C)C(=O)C2(CCCC2)NC(=O)[C@@H]2CCCN2C(=O)[C@H](CCc2ccc(C(F)(F)F)c(Cl)c2)NC(=O)CN(C)C(=O)[C@@H]1Cc1ccc(C)cc1` [PP0088] ([NMeL]I[NMeA][Aze][X10][Sar][hPhe(3-Cl-4-CF3)]P[Ac5c][NMeGly(cPent)][NMeD]-Morpholide; lactam N-11) yielded a Kd of 0.12 nM. With `CCCN1C(=O)[C@@H]2CCN2C(=O)[C@H](C)N(C)C(=O)[C@H]([C@@H](C)CC)NC(=O)[C@H](CC(C)C)N(C)C(=O)C[C@@H](C(=O)N2CCOCC2)N(C)C(=O)[C@H](C2CCCC2)N(C)C(=O)C2(CCCC2)NC(=O)[C@@H]2CCCN2C(=O)[C@H](CCc2ccc(C(F)(F)F)c(Cl)c2)NC(=O)CN(C)C(=O)[C@@H]1Cc1ccc(OC(F)(F)F)cc1` [PP0136] ([NMeL]I[NMeA][Aze][X52][Sar][hPhe(3-Cl-4-CF3)]P[Ac5c][NMeGly(cPent)][NMeD]-Morpholide; lactam N-11) the Kd was 1.3 nM. `CCCN1C(=O)[C@@H]2CCN2C(=O)[C@H](C)N(C)C(=O)[C@H]([C@@H](C)CC)NC(=O)[C@H](CC(C)C)N(C)C(=O)C[C@@H](C(=O)N(C)C)N(C)C(=O)[C@H](C2CCCC2)N(C)C(=O)C2(CCC2)NC(=O)[C@@H]2C[C@@H](OCC)CN2C(=O)[C@H](CCc2ccc(C(F)(F)F)c(Cl)c2)NC(=O)CN(C)C(=O)[C@@H]1Cc1ccc(C(F)(F)F)cc1` [PP0439] ([NMeL]I[NMeA][Aze][NPrPhe(4-CF3)][Sar][hPhe(3-Cl-4-CF3)][Hyp](Et)[Ac4c][NMeGly(cPent)][NMeD]-NMe2; lactam N-11) gave a Kd of 0.021 nM. Work on `C#CCN1C(=O)[C@@H]2CCN2C(=O)[C@H](C)N(C)C(=O)[C@H]([C@@H](C)CC)NC(=O)[C@H](CC(C)C)N(C)C(=O)C[C@@H](C(=O)N2CCOCC2)N(C)C(=O)[C@H](C2CCCC2)N(C)C(=O)C2(CCCC2)NC(=O)[C@@H]2CCCN2C(=O)[C@H](CCc2ccc(C(F)(F)F)c(Cl)c2)NC(=O)CN(C)C(=O)[C@@H]1Cc1ccc(C)cc1` [PP0090] ([NMeL]I[NMeA][Aze][X53][Sar][hPhe(3-Cl-4-CF3)]P[Ac5c][NMeGly(cPent)][NMeD]-Morpholide; lactam N-11) yielded a Kd of 0.083 nM.

Same assay, conditions: SPR, Single Cycle Kinetics, 1:1 binding model; GDP-bound KRAS wild-type protein; read-out: KRAS KD
`CCO[C@@H]1C[C@H]2C(=O)NC3(CCC3)C(=O)N(C)[C@@H](C(CC)CC)C(=O)N(C)[C@H](C)CC(=O)N(C)[C@@H](CC3CCCC3)C(=O)N[C@@H]([C@@H](C)CC)C(=O)N(C)CC(=O)N(C)[C@H]3C/C=C\CCN(C3=O)[C@@H](Cc3ccc(F)cc3)C(=O)N(C)CC(=O)N[C@@H](CCc3cc(F)c(C(F)(F)F)c(F)c3)C(=O)N2C1` [PP1523] showed a Kd of 4.1 nM.

Same assay, conditions: SPR, Single Cycle Kinetics, GDP-bound KRAS wild-type protein; read-out: KRAS KD
`CCO[C@@H]1C[C@H]2C(=O)NC3(CCC3)C(=O)N(C)[C@@H](C3CCCC3)C(=O)N(C)[C@H](C(=O)N3CCCC3)CC(=O)N(C)[C@H]3CCCCC/C=C/c4ccc(cc4)C[C@@H](C(=O)N(C)CC(=O)N[C@@H](CCc4ccc(Cl)c(Cl)c4)C(=O)N2C1)N1CC/C=C\C[C@@H](C1=O)N(C)C(=O)CN(C)C(=O)[C@H]([C@@H](C)CC)NC3=O` [PP3049] was tested, and the Kd was 0.2 nM.
